Like-named read-outs stand apart in the source and are kept apart here.
Columns and labels:
[1] = tested on: secretion of gastric fluids; experiment: anti-secretory activity in pylorus-ligated rats (method of Shay et al.); type: in vivo, male albino Wistar rats
Method: In standard biological test procedures, described generally by Shay et al., Gastroenterology 5, 43 (1945) and 26, 906 (1954) and by Selmici et al., Acta Physiol. Acad. Sci. Hung. […] Anti-secretory activity was determined in male albino Wistar rats weighing approximately 180 g. using the method described by Shay et al. which is described as follows: the rats were divided into medicated groups of at least five rats each and control groups of ten rats. The rats were medicated orally once daily for 2 days prior to stomach ligation and once again immediately following ligation. All drugs were administered as the free base, and control rats received only the vehicle of medication. The rats were housed individually in wire cages, food was withdrawn 48 hours prior to surgery, and water was withdrawn at the time of surgery. Laparotomy was performed under light ether anesthesia, the pyloric-duodenal junction was ligated, and the wound was closed with metal clips and sprayed with a protective surgical dressing. Five hours following surgery, the rats were sacrificed, the stomach was removed, and the gastric juice collected. The gastric fluid was centrifuged, the total volume, color, and volume of solids were recorded. The pH of the gastric fluid was then determined on a Beckman pH meter, and the "free" and "total" hydrochloric acid content of each gastric sample was determined by titrating an aliquot of the gastric fluid (diluted to approximately 10 ml. with distilled water) by titrating with 0.1N sodium hydroxide against Toepfers reagent and phenolphthalein, respectively. By determining the milliequivalents of hydrochloric acid per milliliter of gastric juice and knowing the total volume of gastric juice secreted by each rat, the total acid output can be calculated. Since pH is a function of "free" acid, the activity of the test compounds can be evaluated by comparison of the mean "free" acid of medicated rats with the mean "free" acid of the controls, and the activity can thus be expressed in terms of percent inhibition of free acid.
(§1) Data obtained on administration of the compounds of formula I in rats in the anti-secretory and anti-ulcer tests described above are given in the table below. Unless noted otherwise, data were obtained on oral administration. Results in the anti-secretory activity tests are given in terms of the pH of the gastric fluid in the test animals and the percent inhibition of free acid, while results in the anti-ulcer test are given either in terms of the percent inhibition of ulcers or as a ratio representing the number of animals with ulcers (as the numerator) to the total number of animals in the test group (as the denominator). All doses are expressed in mg./kg.

[2] = tested on: reserpine-induced stomach ulceration; experiment: anti-ulcer activity, reserpine-induced ulcer test (method of Selmici et al.); type: in vivo, male, albino, Sprague-Dawley rats; details: oral; for inhibition in vivo at 100 mg/kg / Anti-Ulcer: ratio of number of animals with ulcers to total number of animals in the test group: 100 mg./kg.
Method: The anti-ulcer activity of the compounds was determined using the reserpine-induced anti-ulcer test method, described by Selmici et al., which is described briefly as follows: male, albino, Sprague-Dawley rats, weighing approximately 300 g., were divided into medicated and control groups of at least five rats each, and one positive control group of five rats medicated with a known drug at the active dose was run with each experiment. The rats were medicated forty-eight, twenty-four, and one hour before receiving an injection of reserpine. All test drugs were administered orally in terms of base, and the control rats received only the vehicle of medication. The rats were housed individually in wire cages, and food was withdrawn 24 hours prior to injection of reserpine, while water was allowed ad libitum. One hour following the third medication, 5.0 mg. of reserpine per kilogram of body weight in a concentration of 5 mg./ml. was injected intramuscularly in each rat. Eighteen hours after injection the rats were sacrificed, their stomachs removed, opened along the greater curvature, rinsed in warm saline, and pinned to a cork board for gross observation. The stomachs were examined for the number and size of ulcerations located in the glandular portion of the stomach with the aid of a one millimeter grid ocular with a 10x dissecting microscope. The degree of ulceration was arbitrarily graded according to the number and size of the ulcers as follows:
The points were added together and divided by the number of rats in each group to give an ulcer score, and the difference in the mean scores of the medicated and control group was expressed as percent inhibition of ulceration. Alternatively, the results can be expressed as a ratio of the total number of rats with any degree of ulceration (as the numerator) to the total number of rats in the test group (as the denominator).
as §1

[3] = Rattus norvegicus, po, 5 h, oral, 25 mg./kg., read-out: % Inhibition of Free Acid
[4] = Rattus norvegicus, po, 5 h, oral, 100 mg./kg., read-out: % Inhibition of Free Acid
[5] = Rattus norvegicus, 5 h, oral, 100 mg./kg., read-out: % Inhibition of Free Acid
[6] = Rattus norvegicus, sc, 5 h, s.c., 100 mg./kg., read-out: % Inhibition of Free Acid
[7] = Rattus norvegicus, intraduodenal, 5 h, i.d., 100 mg./kg., read-out: % Inhibition of Free Acid
[8] = Rattus norvegicus, ip, 5 h, i.p., 100 mg./kg., read-out: % Inhibition of Free Acid

SMILES | inhibition in vivo at 100 mg/kg [1, 4] [%] | pH of the gastric fluid ([1]; oral, 100 mg./kg.) | inhibition in vivo at 25 mg/kg ([2]; Rattus norvegicus, 18 h) [%] | inhibition in vivo at 100 mg/kg ([2]; Rattus norvegicus, 18 h) [%] | also measured
Cc1c(C)n(CC(N)=O)c2ccccc12 [Example 1A, 2,3-dimethyl-1-indoleacetamide] | 100 | 6.0 | 95 | 99 | inhibition in vivo at 25 mg/kg [1, 3]: 69%; inhibition in vivo at 50 mg/kg ([1]; Rattus norvegicus, po, 5 h, oral, 50 mg./kg., read-out: % Inhibition of Free Acid): 65%; inhibition in vivo at 200 mg/kg ([1]; Rattus norvegicus, po, 5 h, oral, 200 mg./kg., read-out: % Inhibition of Free Acid): 100%; pH of the gastric fluid ([1]; oral, 25 mg./kg.): 2.6; pH of the gastric fluid ([1]; oral, 50 mg./kg.): 3.0; pH of the gastric fluid ([1]; oral, 200 mg./kg.): 6.7; inhibition in vivo at 0.8 mg/kg ([2]; Rattus norvegicus, 18 h): 0%; inhibition in vivo at 1.56 mg/kg ([2]; Rattus norvegicus, 18 h): 38%; inhibition in vivo at 3.12 mg/kg ([2]; Rattus norvegicus, 18 h, 3.12 mg./kg.): 45%; inhibition in vivo at 6.25 mg/kg ([2]; Rattus norvegicus, 18 h): 75%; inhibition in vivo at 12.5 mg/kg ([2]; Rattus norvegicus, 18 h): 81%; inhibition in vivo at 50 mg/kg ([2]; Rattus norvegicus, 18 h): 98%
CCc1c(C)c2ccccc2n1CC(N)=O [Example 1C, 2-Ethyl-3-methyl-1-indoleacetamide] | 50 | 2.8 | 84 | 96 | –
Cc1c(C)n(CCCC(N)=O)c2ccccc12 [Example 1D, γ-(2,3-Dimethyl-1-indole)butyramide] | 100 | 6.2 | 72 | 99 | inhibition in vivo at 6.25 mg/kg ([1]; Rattus norvegicus, po, 5 h, oral, 6.25 mg./kg., read-out: % Inhibition of Free Acid): 14%; inhibition in vivo at 25 mg/kg [1, 3]: 38%; pH of the gastric fluid ([1]; oral, 6.25 mg./kg.): 1.3; pH of the gastric fluid ([1]; oral, 25 mg./kg.): 1.6; inhibition in vivo at 0.8 mg/kg ([2]; Rattus norvegicus, 18 h): 38%; inhibition in vivo at 1.56 mg/kg ([2]; Rattus norvegicus, 18 h): 38%; inhibition in vivo at 6.25 mg/kg ([2]; Rattus norvegicus, 18 h): 0%
Cc1c(C)n(CCC(=O)N(C)C)c2ccccc12 [Example 2, β-(2,3-dimethyl-1-indole)-N,N-dimethylpropionamide] | 93 | 4.4 | 34 | – | –
Cc1c(C)n(CC(=O)NO)c2ccccc12 [Example 3B, 2,3-Dimethyl-1-indoleacetohydroxamic acid] | 20 | – | – | 99 | –
CCc1c(C)n(CC(N)=O)c2ccccc12 [Example 3C, 2-Methyl-3-ethyl-1-indoleacetamide] | 86 | 2.8 | – | 97 | –
Cc1c(C)n(CCC(=O)NCCO)c2ccccc12 [Example 3D, β-(2,3-Dimethyl-1-indole)-N-(2-hydroxyethyl)propionamide] | – | 1.2 | 48 | – | –
Cc1c(C)n(CCC(=O)NCCCO)c2ccccc12 [Example 3E, β-(2,3-Dimethyl-1-indole)-N-(3-hydroxypropyl)propionamide] | 34 | 1.4 | 51 | – | –
Cc1c(C)n(CCC(=O)NO)c2ccccc12 [Example 3F, β-(2,3-Dimethyl-1-indole)propionohydroxamic acid] | 34 | 1.3 | – | – | inhibition in vivo at 50 mg/kg ([2]; Rattus norvegicus, 18 h): 95%
Cc1c(C)n(CCC(N)=O)c2ccc(Cl)cc12 [Example 4B, β-(2,3-Dimethyl-5-chloro-1-indole)propionamide] | 88 | 3.6 | 95 | – | –
Cc1c(C)n(CCC(N)=O)c2ccc(F)cc12 [Example 4C, β-(2,3-Dimethyl-5-fluoro-1-indole)propionamide] | 97 | 5.9 | 94 | – | –
CCc1c(C)c2ccccc2n1CCC(N)=O [Example 4D, β-(2-Ethyl-3-methyl-1-indole)propionamide] | 88 | 4.1 | – | 97 | –
CCc1c(C)n(CCC(N)=O)c2ccccc12 [Example 4E, β-(2-Methyl-3-ethyl-1-indole)propionamide] | 42 | 3.4 | 80 | 93 | inhibition in vivo at 6.25 mg/kg ([2]; Rattus norvegicus, 18 h): 60%; inhibition in vivo at 12.5 mg/kg ([2]; Rattus norvegicus, 18 h): 72%; inhibition in vivo at 50 mg/kg ([2]; Rattus norvegicus, 18 h): 94%
Cc1c(C=O)c2ccccc2n1CCC(N)=O [Example 4F, β-(2-Methyl-3-formyl-1-indole)propionamide] | – | 1.2 | – | 9 | inhibition in vivo at 100 mg/kg [1, 5]: 0%
Cc1c(C=O)c2cc(F)ccc2n1CCC(N)=O [Example 4G, β-(2-Methyl-3-formyl-5-fluoro-1-indole)propionamide] | – | 1.1 | – | – | inhibition in vivo at 100 mg/kg [1, 5]: 17%; inhibition in vivo at 100 mg/kg [1, 6]: 36%; pH of the gastric fluid ([1]; s.c., 100 mg./kg.): 1.2; Anti-Ulcer: ratio of number of animals with ulcers to total number of animals in the test group [2]: 5/5
Cc1c(C)n(CC(C)C(N)=O)c2ccccc12 (stereo not drawn) [Example 4H, β-(2,3-Dimethyl-1-indole) -α-methylpropionamide] | 100 | 5.7 | – | 89 | –
Cc1c(C=O)c2ccccc2n1CCCC(N)=O [Example 4J, γ-(2-Methyl-3-formyl-1-indole)butyramide] | – | 1.2 | – | 26 | inhibition in vivo at 100 mg/kg [1, 5]: 17%
Cc1c(C=O)n(CCC(N)=O)c2ccccc12 [Example 4K, β-(2-Formyl-3-methyl-1-indole)propionamide] | – | 1.16 | – | – | inhibition in vivo at 100 mg/kg [1, 7]: 37%; inhibition in vivo at 100 mg/kg [1, 8]: 54%; pH of the gastric fluid ([1]; i.d., 100 mg./kg.): 1.54; pH of the gastric fluid ([1]; i.p., 100 mg./kg.): 2.30; Anti-Ulcer: ratio of number of animals with ulcers to total number of animals in the test group [2]: 3/5
Cc1c(C(=O)C(F)(F)F)c2ccccc2n1CCC(N)=O [Example 4L, β-(2-Methyl-3-trifluoroacetyl-1-indole)propionamide] | – | 1.8 | – | – | inhibition in vivo at 100 mg/kg [1, 5]: 46%; inhibition in vivo at 100 mg/kg [1, 7]: 65%; inhibition in vivo at 100 mg/kg [1, 8]: 78%; pH of the gastric fluid ([1]; i.d., 100 mg./kg.): 2.5; pH of the gastric fluid ([1]; i.p., 100 mg./kg.): 3.8
Cc1c(-c2ccccc2)n(CCC(N)=O)c2ccccc12 [Example 4M, β-(2-Phenyl-3-methyl-1-indole)propionamide] | 20 | 1.1 | – | – | inhibition in vivo at 100 mg/kg [1, 7]: 34%; inhibition in vivo at 100 mg/kg [1, 8]: 43%; pH of the gastric fluid ([1]; i.d., 100 mg./kg.): 1.2; pH of the gastric fluid ([1]; i.p., 100 mg./kg.): 1.7; Anti-Ulcer: ratio of number of animals with ulcers to total number of animals in the test group [2]: 0/5
NC(=O)CCn1c(-c2ccccc2)c(C=O)c2ccccc21 [Example 4N, β-(2-Phenyl-3-formyl-1-indole)propionamide] | – | 1.0 | – | – | inhibition in vivo at 100 mg/kg [1, 5]: 0%; inhibition in vivo at 100 mg/kg [1, 6]: 0%; pH of the gastric fluid ([1]; s.c., 100 mg./kg.): 1.0; Anti-Ulcer: ratio of number of animals with ulcers to total number of animals in the test group [2]: 5/5

From patent US4069337A, “2-Substituted-indole-1-lower-alkanecarboxamides having anti-secretory or anti-ulcer activity” (Sterling Drug Inc., priority 1976, dated 1978)
